The term GI50 denotes the concentration that inhibits growth by half. By IC50 is commonly meant the concentration that inhibits the measured activity by half.

The text below walks through data of patent US11608343B2, “Substituted pyrimido[5,4-d]pyrimidines as HER2 inhibitors” (Boehringer Ingelheim International GmbH, priority 2020, dated 2023).

Assay type in all cases: cell-based
Assay [1] relates to Ba/F3 cells HER2 mutants (YVMA). Description: Ba/F3 proliferation assay, HER2 YVMA, CellTiter-Glo. Particulars: Mus musculus, BaF3, 72 h. On the procedure: (§1) Ba/F3 Cell Model Generation and Proliferation Assays
(§2) Plasmids containing HER2 mutants and EGFR WT were obtained from GeneScript. To generate EGFR/HER2-dependent Ba/F3 models, Ba/F3 cells are transduced with retroviruses containing vectors that harbor EGFR WT, HER2 WT or HER2 mutants (YVMA). Platinum-E cells (Cell Biolabs) are used for retrovirus packaging. Retrovirus is added to Ba/F3 cells. To ensure infection, 4 μg/mL polybrene is added and cells are spin-infected. Infection efficiency is confirmed by measuring GFP-positive cells using a cell analyzer. Cells with an infection efficiency of 10% to 20% are further cultivated and puromycin selection with 1 μg/mL is initiated. As a control, parental Ba/F3 cells are used to assess the selection status. Selection is considered successful when parental Ba/F3 cells cultures die. To evaluate the transforming potential of HER2 mutations, the growth medium is no longer supplemented with IL-3. Ba/F3 cells harboring the empty vector are used as a control. A switch from IL-3 to EGF is performed for Ba/F3 cells expressing EGFR WT known for its dependency on EGF ligand. Approximately ten days before conducting the experiments, puromycin is left out. For proliferation assays (data in tables 10 and 12), Ba/F3 cells are seeded into 96-well plates at 5×10^3 cells/100 μL in growth media. Compounds are added by using a HP D3000 Digital Dispenser. All treatments are performed in technical triplicates. Treated cells are incubated for 72 h at 37° C. with 5% CO2. A CellTiter-Glo® Luminescent Cell Viability Assay (Promega) is performed and chemoluminescence is measured by using the multilabel Plate Reader VICTOR X4. The raw data are imported into and analyzed with the Boehringer Ingelheim proprietary software MegaLab (curve fitting based on the program PRISM, GraphPad Inc.).

The next assay addresses T1, HER2 YVMA (Homo sapiens, UniProt P04626, INS775YVMA).
T1 construct: expressed in transfected cells; host or cells: human HEK cells, retroviral transduction, doxycycline-inducible expression
Description: pHER2 (ERBB2) YVMA assay: phosphorylation of HER2 YVMA at Tyr1221/1222 in HEK cells (AlphaScreen Surefire). Particulars: doxycycline induced, 4 h with compound. The protocol: For the assay, HEK HER2 YVMA cells are seeded in MEM medium with 10% FBS. 4 hours prior to compound addition, HER2 YVMA expression is induced using 1 μg/mL Doxycycline. […] Subsequently, 60.000 cells/well in 60 μL are added. Cells are incubated with compound for 4 h at 37° C. […] The mixture is incubated at a temperature of 20-25° C. with shaking (700 rpm) for 20 min. After centrifugation, 4 μL of the lysate are transferred to Proxiplates. […] Plates are shaken for 1 min (1400 rpm) and incubated for 2 h at a temperature of 20-25° C. in the dark. […] Plates are shaken for 1 min (1400 rpm) and incubated for 2 h at a temperature of 20-25° C. in the dark. Plates are subsequently analyzed using an Envision reader platform. […] IC50 values are computed from these values in the MEGASTAR IC50 application using a 4 parametric logistic model. […] The results of the assay are provided as IC50 values.
In general terms: Alpha assays give light when donor and acceptor beads are brought close together.

Assay [2] has as its system NCI-H2170 (HER2 wild type) cells. Description: Tumor cell line proliferation assay, NCI-H2170 (HER2 wild type), CellTiter-Glo. Particulars: Homo sapiens, 72 h, read-out: GI50 NCI H-2170 HER2 wt amp. The protocol:
(§3) For proliferation assays, NCI-H2170 (HER2 wild type), NCI-H2170 HER2 YVMA and EGFR WT dependent A431 cells are used. NCI-H2170 HER2 YVMA or NCI-H2170 cells are seeded into 96-well plates at 750 cells/60 μL in growth media (RPMI ATCC+10% FCS, +Penicillin/Streptomycin). […] Compounds are added by using a HP D3000 Digital Dispenser one day after plating the cells. All treatments are performed in technical triplicates. Treated cells are incubated for 72 h at 37° C. with 5% CO2. CellTiter-Glo® Luminescent Cell Viability Assay (Promega) is performed and chemoluminescence is measured by using the multilabel Plate Reader VICTOR X4. The raw data are imported into and analyzed with the Boehringer Ingelheim proprietary software MegaLab (curve fitting based on the program PRISM, GraphPad Inc.).
In general terms: Cellular ATP, detected with luciferase, serves as a proxy for viable cell number.

For another assay, the target named is T2, EGFR wild type (WT) (Homo sapiens, UniProt P00533).
T2 construct: expressed in transfected cells; host or cells: human HEK cells (ATCC CRL-1573), retroviral transduction
Description: pEGFR assay: phosphorylation of EGFR at Tyr1068 in HEK cells expressing EGFR WT (AlphaScreen Surefire). Particulars: 4 h with compound. The protocol: This assay quantifies the phosphorylation of EGFR at Tyr1068 and is used to measure the inhibitory effect of compounds on the transgenic EGFR wild type (WT) protein expressed in HEK cells.
Transduced cells are selected using puromycin. p-EGFR Tyr1068 is determined using the AlphaScreen Surefire pEGF Receptor (Tyr1068) Assay (PerkinElmer, TGRERS). For the assay, HEK EGFR WT cells are seeded in MEM medium with 10% FBS. […] Subsequently, 60.000 cells/well in 60 μL are added. Cells are incubated with compound for 4 h at 37° C. […] The mixture is incubated at a temperature of 20-25° C. with shaking (700 rpm) for 20 min. After centrifugation, 4 μL of the lysate are transferred to Proxiplates. […] Plates are shaken for 1 min (1400 rpm) and incubated for 2 h at a temperature of (20-25° C.) in the dark. […] Plates are shaken for 1 min (1400 rpm) and incubated for 2 h at a temperature of (20-25° C.) in the dark. Plates are subsequently analyzed using an Envision reader platform. […] IC50 values are computed from these values in the MEGASTAR IC50 application using a 4 parametric logistic model.
This cellular phospho-EGFR (pEGFR) compound dose-response assay quantifies the phosphorylation of EGFR at Tyr1068 in HEK cells expressing EGFR WT. The results of the assay are provided as IC50 values.

Assay [3] deals with NCI-H2170 HER2 YVMA cells. Description: Tumor cell line proliferation assay, NCI-H2170 HER2 YVMA, CellTiter-Glo. Particulars: Homo sapiens, 72 h, read-out: GI50 NCI H-2170 HER2 YVMA.
Description: HER2 YVMA Tumor Cell Line Model Generation and Proliferation Assays
Homology-directed genome engineering is employed to insert a 12 nucleotide sequence encoding YVMA into Exon 20 of the genomic HER2 locus in NCI-H2170 cells. […] The DNA template containing the HER2 exon 20 YVMA insertion variant was obtained from GenScript. PCR followed by Sanger sequencing is used to confirm the presence of the 12-nucleotide insertion in HER2 Exon 20 resulting in the YVMA amino acid duplication.
as §3

In assay [4] the test system is EGFR WT dependent A431 cells. Description: Tumor cell line proliferation assay, EGFR WT dependent A431 cells, CellTiter-Glo. The following applies: Homo sapiens, A-431, 72 h, read-out: GI50 A431 EGFR wt amp. On the procedure:
as §3

The subject of the next assay is Ba/F3 cells HER2 WT. Description: Ba/F3 proliferation assay, HER2 WT, CellTiter-Glo. The following applies: Mus musculus, BaF3, 72 h. On the procedure: as §1, §2
In assay [5] the test system is Ba/F3 cells expressing EGFR WT. Description: Ba/F3 proliferation assay, EGFR WT (EGF dependent), CellTiter-Glo. The following applies: Mus musculus, BaF3, EGF instead of IL-3, 72 h, read-out: GI50 BAF3 EGF dep. The protocol: as §1, §2

T2 sequence (P00533 25-1210): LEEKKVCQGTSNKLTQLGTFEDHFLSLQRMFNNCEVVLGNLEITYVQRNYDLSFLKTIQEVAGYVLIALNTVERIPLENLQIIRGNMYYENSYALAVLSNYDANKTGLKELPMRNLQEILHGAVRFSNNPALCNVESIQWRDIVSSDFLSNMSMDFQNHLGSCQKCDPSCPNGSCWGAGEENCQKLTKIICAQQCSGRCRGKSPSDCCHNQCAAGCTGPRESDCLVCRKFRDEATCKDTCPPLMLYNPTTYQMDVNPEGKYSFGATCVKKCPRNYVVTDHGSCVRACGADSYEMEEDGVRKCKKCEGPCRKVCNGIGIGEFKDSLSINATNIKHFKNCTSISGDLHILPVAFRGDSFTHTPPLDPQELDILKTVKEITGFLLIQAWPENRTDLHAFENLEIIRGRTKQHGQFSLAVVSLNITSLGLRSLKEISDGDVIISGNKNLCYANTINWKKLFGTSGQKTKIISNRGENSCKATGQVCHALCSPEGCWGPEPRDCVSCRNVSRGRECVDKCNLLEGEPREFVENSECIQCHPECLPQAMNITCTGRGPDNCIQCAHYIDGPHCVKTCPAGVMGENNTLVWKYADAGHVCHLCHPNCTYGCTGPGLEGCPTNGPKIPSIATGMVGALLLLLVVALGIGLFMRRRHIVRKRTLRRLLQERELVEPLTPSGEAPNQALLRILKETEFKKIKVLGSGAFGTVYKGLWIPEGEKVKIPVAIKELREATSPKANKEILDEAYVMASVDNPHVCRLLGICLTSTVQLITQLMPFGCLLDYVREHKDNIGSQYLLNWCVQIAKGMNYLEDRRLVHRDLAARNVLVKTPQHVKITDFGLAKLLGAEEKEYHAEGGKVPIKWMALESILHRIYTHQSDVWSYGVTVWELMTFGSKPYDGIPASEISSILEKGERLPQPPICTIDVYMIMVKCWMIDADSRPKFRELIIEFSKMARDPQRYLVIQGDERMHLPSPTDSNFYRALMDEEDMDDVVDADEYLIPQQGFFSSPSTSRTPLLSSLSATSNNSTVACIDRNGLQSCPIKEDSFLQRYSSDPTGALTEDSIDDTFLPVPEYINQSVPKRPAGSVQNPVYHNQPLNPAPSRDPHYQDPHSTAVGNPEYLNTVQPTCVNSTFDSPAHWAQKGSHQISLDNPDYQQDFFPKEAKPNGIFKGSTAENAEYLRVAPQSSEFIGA
T1 sequence (P04626 with tags, fused parts or gaps INS775YVMA): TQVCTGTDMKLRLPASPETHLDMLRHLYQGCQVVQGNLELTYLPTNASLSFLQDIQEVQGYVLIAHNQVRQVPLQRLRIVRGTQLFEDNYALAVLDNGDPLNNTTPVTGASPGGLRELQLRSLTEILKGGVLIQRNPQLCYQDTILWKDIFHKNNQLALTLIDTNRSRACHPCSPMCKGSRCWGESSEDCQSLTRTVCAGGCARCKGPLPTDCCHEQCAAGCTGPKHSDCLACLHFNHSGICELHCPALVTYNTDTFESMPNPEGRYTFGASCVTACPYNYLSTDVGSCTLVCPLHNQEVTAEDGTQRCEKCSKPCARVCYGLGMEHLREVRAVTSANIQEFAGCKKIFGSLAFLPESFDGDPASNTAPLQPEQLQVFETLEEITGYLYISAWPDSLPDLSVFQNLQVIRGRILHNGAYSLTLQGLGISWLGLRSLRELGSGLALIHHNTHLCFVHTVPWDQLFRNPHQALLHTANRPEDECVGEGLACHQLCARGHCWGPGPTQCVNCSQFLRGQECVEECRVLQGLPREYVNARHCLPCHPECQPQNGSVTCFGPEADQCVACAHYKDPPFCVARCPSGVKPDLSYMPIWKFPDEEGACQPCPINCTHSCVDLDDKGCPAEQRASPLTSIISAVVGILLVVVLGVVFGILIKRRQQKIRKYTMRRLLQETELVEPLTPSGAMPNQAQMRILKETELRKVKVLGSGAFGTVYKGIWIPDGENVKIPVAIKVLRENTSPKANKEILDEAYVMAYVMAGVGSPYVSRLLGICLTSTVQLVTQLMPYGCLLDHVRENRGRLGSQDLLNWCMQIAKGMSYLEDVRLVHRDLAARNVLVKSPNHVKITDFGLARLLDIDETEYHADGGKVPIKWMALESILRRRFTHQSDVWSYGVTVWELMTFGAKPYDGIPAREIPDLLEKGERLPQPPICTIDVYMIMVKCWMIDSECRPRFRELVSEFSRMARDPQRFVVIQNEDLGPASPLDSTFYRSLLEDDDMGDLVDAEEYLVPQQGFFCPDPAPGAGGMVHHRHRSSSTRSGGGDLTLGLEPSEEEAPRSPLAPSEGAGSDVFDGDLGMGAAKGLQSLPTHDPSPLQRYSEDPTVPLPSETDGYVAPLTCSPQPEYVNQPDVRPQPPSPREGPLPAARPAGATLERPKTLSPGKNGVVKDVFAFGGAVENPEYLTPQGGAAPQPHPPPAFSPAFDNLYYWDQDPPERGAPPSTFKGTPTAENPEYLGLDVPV

Take `C=CC(=O)NC1CN(c2ncc3ncnc(Nc4ccc(Oc5ccc6c(c5)ncn6C)c(Cl)c4)c3n2)C1` [Example I-08]: the GI50 in assay [1] was 36 nM; in assay [2] it was 8 nM; in assay [3] it was 44 nM; in assay [4], 1500 nM; in the assay on Ba/F3 cells HER2 WT, 2 nM; in assay [5], 2300 nM. The half-inhibitory concentration (IC50) turned out to be 58 nM on HER2 YVMA and 336 nM at EGFR wild type (WT).
On to `C=CC(=O)NC1CN(c2ncc3ncnc(Nc4ccc(Oc5ccn6ncnc6c5)c(C)c4)c3n2)C1` [Example I-09], for which the GI50 was 29 nM in assay [1]; 9 nM in assay [2]; 75 nM in assay [3]; greater than 5000 nM in assay [4]; 1 nM with Ba/F3 cells HER2 WT; 2240 nM in assay [5]. In addition, the values for the IC50 at HER2 YVMA and at EGFR wild type (WT) were 26 nM and 715 nM, respectively.
As to `C#Cc1cc(Nc2ncnc3cnc(N4CC(NC(=O)C=C)C4)nc23)ccc1Oc1ccn2ncnc2c1` [Example I-10], the GI50 was determined as 35 nM in assay [1]; 12 nM in assay [2]; 126 nM in assay [3]; 1460 nM in assay [4]; 3 nM with Ba/F3 cells HER2 WT; 1650 nM in assay [5]. Further, the IC50 on HER2 YVMA was determined as 24 nM; on EGFR wild type (WT) it was 217 nM.
As to `C=CC(=O)NC1CCN(c2ncc3ncnc(Nc4ccc(Oc5ccn6ncnc6c5)c(C)c4)c3n2)CC1` [Example I-11], the 50% growth inhibitory concentration (GI50) in assay [1] was 28 nM; in assay [2], 8 nM; in assay [3] it was 172 nM; in assay [4] it was 1250 nM; in the assay with Ba/F3 cells HER2 WT it was 2 nM; in assay [5] it was greater than 2000 nM. The IC50 worked out at 22 nM at HER2 YVMA and 521 nM at EGFR wild type (WT).
As for `C=CC(=O)NC1CCN(c2ncc3ncnc(Nc4ccc(Oc5ccn6ccnc6c5)c(C)c4)c3n2)CC1` [Example I-12], the GI50 is 18 nM in assay [1]; 8 nM in assay [2]; 71 nM in assay [3]; greater than 5000 nM in assay [4]; 2 nM in the assay on Ba/F3 cells HER2 WT; 1750 nM in assay [5]. For the same molecule, the IC50 at HER2 YVMA came out at 16 nM; at EGFR wild type (WT) it was 230 nM.
Take `C=CC(=O)NC1CN(c2ncc3ncnc(Nc4ccc(Oc5cnc6c(c5)ncn6C)c(C)c4)c3n2)C1` [Example I-13]: the GI50 was 32 nM in assay [1]; 19 nM in assay [2]; 82 nM in assay [3]; greater than 5000 nM in assay [4]; 1 nM in the assay with Ba/F3 cells HER2 WT; greater than 2000 nM in assay [5]. The IC50 at HER2 YVMA was 28 nM; on EGFR wild type (WT), 429 nM.
Take `C=CC(=O)N1CCC(Nc2ncc3ncnc(Nc4ccc(Oc5ccc6c(c5)ncn6C)c(C)c4)c3n2)CC1` [Example I-14]: the GI50 in assay [1] was 17 nM; in assay [2] it was 10 nM; in assay [3], 37 nM; in assay [4], greater than 2000 nM; in the assay on Ba/F3 cells HER2 WT, 2 nM; in assay [5], 756 nM. The IC50 at HER2 YVMA is 11 nM; on EGFR wild type (WT) it was 73 nM.
For `C#Cc1cc(Nc2ncnc3cnc(NC4CCN(C(=O)C=C)CC4)nc23)ccc1Oc1ccc2c(c1)ncn2C` [Example I-15], the GI50 in assay [1] worked out at 18 nM; in assay [2], 13 nM; in assay [3], 44 nM; in assay [4], 948 nM; in the assay with Ba/F3 cells HER2 WT it was 2 nM; in assay [5] it was 425 nM. For the same molecule, the IC50 worked out at 12 nM at HER2 YVMA and 86 nM on EGFR wild type (WT).
Consider `C=CC(=O)N1CCC(Nc2ncc3ncnc(Nc4ccc(Oc5ccn6ncnc6c5)c(C)c4)c3n2)CC1` [Example I-16], for which the GI50 in assay [1] came to 10 nM; in assay [2], 4 nM; in assay [3], 19 nM; in assay [4] it was 660 nM; with Ba/F3 cells HER2 WT, 1 nM; in assay [5], 375 nM. Besides, the half-maximal inhibitory concentration (IC50) on HER2 YVMA came to 5 nM; on EGFR wild type (WT) it was 23 nM.
